In patent US20260000670A1 (priority 2022, published 2026):

Assays:
C57B1/6 mice = test: anti-AAV8 IgM and IgG titers (ELISA on empty AAV8 capsids) after rAAV8 administration in mice; format: in vivo
Method: FIG. 1. rAAV8 readministration in mice and Dasatinib treatment. C57B1/6 mice were intravenously dosed on study day 1 with a rAAV8 encoding the hSEAP (human secreted alkaline phosphatase) at the dose of 1E12 vg/kg. On study day 22, they received a second rAAV8 encoding hFIX (human Factor IX) at the dose of 5E13 vg/kg. […] Group 2 (immunized mice, n=10) received both rAAV8 injections. Group 3 mice (n=10) received the two rAAV8 injections and were treated by oral gavage with 50 mg/kg dasatinib twice per day for 7 days starting on the day of first rAAV8 dosing. Blood samples were collected one day before and every 7 days after the first rAAV8 treatment.
(§1) FIGS. 2A-2C. Effects of dasatinib treatment on anti-AAV8 IgM titers. Serum was isolated from blood collected on study days 0, 8, 15, 21, 29 and 36 (FIG. 1) and anti-AA V8 IgM measured by ELISA, performed on immobilized empty AAV8 capsids. IgM antibody titers were determined by ELISA OD values of serial dilutions (1:10 and 7-step serial dilution 1:3). For the determination of mean background level, readouts were pooled from all mouse groups at day 0. The positivity threshold is represented by the dotted line. The kinetics of anti-AAV8 IgM antibody titers is shown for each mouse group (FIGS. 2A-2C). The empty circles represent titers under the threshold, and crossed circles represent titers above the threshold.
as §1, with “FIGS. 3A-3C.” for “FIGS. 2A-2C.”, “anti-AAV8 IgG” for “anti-AAV8 IgM”, “and anti-AAV8 IgG” for “and anti-AA V8 IgM”, “capsids. IgG” for “capsids. IgM”, “of anti-AA V8 IgG” for “of anti-AAV8 IgM”, “(FIGS. 3A-3C).” for “(FIGS. 2A-2C).”
To assess whether dasatinib could efficiently prevent anti-AAV antibody formation after rAAV administration and allow efficient re-administration of rAAV, a study was conducted in mice (FIG. 1). Groups of C57B1/6 mice were intravenously dosed with a first rAAV8 encoding hSEAP (human secreted alkaline phosphatase, under control of a CMV promoter) at the dose of 1E12vg/kg on study day 1. On study day 22, they were dosed with a second rAAV8 encoding hFIX (human Factor IX, under control of a CMV promoter) at the dose of 5E13 vg/kg. […] Group 3 mice were treated with Dasatinib at the dose of 50 mg/kg by oral gavage twice per day for 7 days, starting on the day of first rAAV8 dosing. […]

[1] = Lindauer M et al, 2010; cited from earlier work
human whole blood = test: AAV-mediated cytokine release in human whole blood (one AAV8 pre-immune donor); format: cell-based; conditions: dasatinib 12.5 or 50 nM, 24 hrs with 5E11 vg/mL AAV8-hSEAP
Method: FIGS. 5A-5B. Effect of dasatinib on AAV-mediated cytokine release in human whole blood. The production of low levels of IFN-γ and IL-6 in whole blood are stimulated after 24 hrs incubation with 5E11 vg/mL of AAV8-hSEAP. […] Depicted are cytokine concentrations (pg/mL+/−SD, left), fold increases over the level measured in the PBS control (middle) and percentages of inhibition of AAV-dependent cytokine release (right, calculated as 100 × (concentration with AAV8 alone-concentration with AAV8 and dasatinib)/(concentration with AAV8 alone)), respectively. (FIG. 5A) Interferon-γ production. (FIG. 5B) IL-6 production.
To assess whether dasatinib could affect AAV-mediated cytokine release, an assay was performed in whole blood from a healthy donor. This donor was seropositive for anti-AAV8 antibodies (IgG titer: 1/21870; IgM titer: 1/810). Whole blood from an AAV8 pre-immune donor was incubated in triplicates with 5E11 vg/mL (GC/mL) of an AAV8-hSEAP vector, in the presence or absence of 12.5 nM or 50 nM dasatinib. Lipopolysaccharide (LPS) and Lemtrada (alemtuzumab, anti-CD52, Genzyme), a monoclonal antibody known to induce strong cytokine release in blood, were used as positive controls at a concentration of 1 μg/ml and 0.1 μg/ml respectively. […] After 24 hrs, plasma supernatants were collected and cytokines measured using Quanterix kits with the SP-X imaging and analysis system (Simoa).

Cc1nc(Nc2ncc(C(=O)Nc3c(C)cccc3Cl)s2)cc(N2CCN(CCO)CC2)n1 [dasatinib, N-(2-chloro-6-methylphenyl)-2-[[6-[4-(2-hydroxyethyl)-1-piperazinyl]-2-methyl-4-pyrimidinyl]amino]-5-thiazole carboxamide monohydrate]
anti-AAV8 IgG titers compared with immunized control Group 2 (C57B1/6 mice; Group 3, 50 mg/kg oral gavage twice per day for 7 days): drastically reduced | anti-AAV8 IgM in serum versus positivity threshold (C57B1/6 mice; Group 3, 50 mg/kg oral gavage twice per day for 7 days from first rAAV8 dosing, until administration of second rAAV8 (day 22)): remained underthe IgM positivity threshold | mice above the anti-AAV8 IgG positivity threshold (C57B1/6 mice; Group 3, study day 21, 50 mg/kg oral twice per day for 7 days): 4/10 | anti-AAV8 IgG titers after rAAV8 re-administration (C57B1/6 mice; day 36, two weeks after rAAV8 re-administration): comparable in all mouse groups | half-life [1]: very short | IFN-γ production (human whole blood): reduced dose-dependently | IL-6 production (human whole blood): reduced dose-dependently
